The SangsterLogP compilation

experiment: method code SF, from DOI: 10.1002/qsar.19890080404

logP | SMILES
1.99 | O=C(O)c1c[nH]c2ccccc12
2.05 | CCOC(=O)c1c[nH]cc1C
2.06 | CC(=O)c1c[nH]c2ccccc12
1.34 | NC(=S)c1cccs1
0.64 | O=Cc1ccc[nH]1
1.13 | N#Cc1ccc[nH]1
1.22 | CC(=O)Nc1ccc2[nH]c(C)cc2c1
1.69 | O=Cc1c[nH]c2ccccc12
0.38 | CS(=O)(=O)c1cccs1

experiment: not given

logP | SMILES
1.44 | COc1ccco1
1.96 | O=[N+]([O-])/C=C/c1cccs1
1.78 | CCOC(=O)c1ccoc1
2.54 | Clc1cccs1
3.18 | CCOC(=O)c1cc2ccccc2[nH]1
0.66 | NC(=O)c1cccc2[nH]ccc12
2.36 | N#Cc1ccc2[nH]ccc2c1
2.92 | O=[N+]([O-])c1ccc2sccc2c1
3.04 | CCOC(=O)c1c[nH]c2ccccc12
2.01 | CC(=O)Oc1c[nH]c2ccccc12
2.56 | Cc1cccc2cc[nH]c12
2.38 | N#Cc1ccc2cc[nH]c2c1
1.07 | O=CNc1ccc2[nH]ccc2c1
0.51 | O=Cc1ccoc1
2.63 | O=[N+]([O-])c1cccc2cc[nH]c12
1.56 | O=[N+]([O-])C=Cc1ccco1
2.53 | CCOc1ccc2cc[nH]c2c1
1.35 | CC(=O)C=Cc1ccco1
3.44 | O=C(c1c[nH]c2ccccc12)C(F)(F)F
0.41 | CN(C)C(=O)c1ccco1
2.46 | N#Cc1cccc2[nH]ccc12
0.87 | NC(=O)c1ccc2[nH]ccc2c1
3.25 | Clc1cccc2cc[nH]c12
0.37 | NCc1ccco1
2.18 | Brc1ccoc1
2.58 | COC(=O)c1ccc2[nH]ccc2c1
